Data reported in patent US20170327455A1, “Omefibrates for Treating Dyslipidemia and Cardiovascular Disease” (Jiva Pharma, Inc., priority 2014, published 2017).
“Also recorded” adds a separate entry of the source.

Key:
[1] = molecular target: T1, PPARα (Homo sapiens, UniProt Q07869); experiment: PPARα agonist assay: GAL4-PPAR ligand-binding domain luciferase reporter in live cells; format: cell-based; conditions: FIG. 1; for activation of PPARα transcriptional activity (normalized luciferase activity): GAL4-regulated luciferase reporter, live cells
T1 construct: expressed in transfected cells
T1 sequence (Q07869 239-466 limits assumed): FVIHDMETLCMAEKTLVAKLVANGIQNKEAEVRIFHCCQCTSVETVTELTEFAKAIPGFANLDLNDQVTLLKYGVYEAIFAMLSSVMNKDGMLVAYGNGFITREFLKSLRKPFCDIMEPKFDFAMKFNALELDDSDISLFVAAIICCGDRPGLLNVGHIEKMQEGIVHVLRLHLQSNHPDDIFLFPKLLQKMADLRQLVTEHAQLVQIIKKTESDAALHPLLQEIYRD
Description: The activity of JIVA-0018, JIVA-0019 and JIVA-0020 was determined in a PPARα-dependent transcription assay. This assay was carried out in live cells treated with these above compounds, and provides a direct measurement of a compound's ability to activate PPARα. This PPARα activity assay is a standard nuclear receptor ligand activity assay that utilizes the ligand-binding domain of the PPAR receptor fused to a heterologous GAL4 DNA binding domain. The transcriptional read-out is from a GAL4-regulated luciferase reporter. In this assay, compounds that activate the receptor cause an increase in luciferase activity measured in a luminometer.

[2] = molecular target: T2, PPARδ (Homo sapiens, UniProt Q03181); experiment: PPARδ Agonist Assay (luciferase reporter); format: cell-based; conditions: FIG. 2
T2 construct: expressed in transfected cells
T2 sequence (Q03181 211-439 limits assumed): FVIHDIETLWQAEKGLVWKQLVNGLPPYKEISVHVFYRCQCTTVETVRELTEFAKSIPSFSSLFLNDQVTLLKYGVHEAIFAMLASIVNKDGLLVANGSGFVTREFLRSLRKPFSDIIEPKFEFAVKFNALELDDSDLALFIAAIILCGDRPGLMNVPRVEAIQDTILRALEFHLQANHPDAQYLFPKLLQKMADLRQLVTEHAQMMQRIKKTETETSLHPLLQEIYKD

| Compound | activation of PPARα transcriptional activity (normalized luciferase activity) [1] | activity on PPARδ (normalized luciferase activity) [2] | EC50 ([1]; estimated from the data, read-out: EC50 for activation of PPARα) [µM] |
| --- | --- | --- | --- |
| CC/C=C\C/C=C\C/C=C\CCCCCCCCC(C)(C)C(=O)O [JIVA-0019, ALA Fibrate] | strongly activated PPARα; also recorded: potent and selective activator of PPARα | at the base line | – |
| DHA Fibrate [JIVA-0020] | neither the EPA-fibrate, JIVA-0018 nor the DHA-fibrate, JIVA-0020 stimulated PPARα activity | – | > 20 |
| CC/C=C\C/C=C\C/C=C\C/C=C\C/C=C\CCCCC(C)(C)C(=O)O [JIVA-0018, EPA Fibrate or EPA-Fibric Acid] | neither the EPA-fibrate, JIVA-0018 nor the DHA-fibrate, JIVA-0020 stimulated PPARα activity; also recorded: at the base line | at the base line | – |
